SMILES strings stand for the structures. Values joined by “and” are separate entries in the source; they are usually repeats but may differ in a detail not shown here. Equal entries are not always repeated. Inconclusive results and toxic doses are left out.

For 25 molecules, T/C results are on record in PubChem BioAssay AID330 (DTP/NCI, 2004).

The experiment relates to P388 leukemia ip, CD2F1 mice, survival T/C. In words: NCI In Vivo Anticancer Drug Screen. Data for tumor model P388 Leukemia (intraperitoneal) in CD2F1 (CDF1) mice. The following applies: endpoint: median survival time, higher = longer survival. Put shortly: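 Mice carrying the transplanted tumor received test compound or vehicle. Survival was recorded in each group, and the value is the treated-group measurement divided by that of the vehicle-treated control group.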

[1] abbreviates: dose: 6.25 mg/kg/injection, schedule: Q01DX005 (ip), vehicle: saline with Tween-80.
Setting [2] is: dose: 60.0 mg/kg/injection, schedule: Q01DX005 (ip), vehicle: Klucel (hydroxypropylcellulose) (HPC).
Where [3] appears, read: dose: 120.0 mg/kg/injection, schedule: Q01DX005 (ip), vehicle: Klucel (hydroxypropylcellulose) (HPC).
Setting [4] is: dose: 50.0 mg/kg/injection, schedule: Q01DX005 (ip), vehicle: Klucel (hydroxypropylcellulose) (HPC).
The mark [5] stands for this setting: dose: 12.5 mg/kg/injection, schedule: Q01DX009 (ip), vehicle: saline with Tween-80.
The mark [6] stands for this setting: dose: 100.0 mg/kg/injection, schedule: Q01DX005 (ip), vehicle: saline with Tween-80.
[7] abbreviates: dose: 240.0 mg/kg/injection, schedule: Q01DX005 (ip), vehicle: Klucel (hydroxypropylcellulose) (HPC).
[8] abbreviates: dose: 50.0 mg/kg/injection, schedule: Q01DX009 (ip), vehicle: Klucel (hydroxypropylcellulose) (HPC).
Where [9] appears, read: dose: 100.0 mg/kg/injection, schedule: Q01DX009 (ip), vehicle: Klucel (hydroxypropylcellulose) (HPC).
Where [10] appears, read: dose: 200.0 mg/kg/injection, schedule: Q01DX009 (ip), vehicle: Klucel (hydroxypropylcellulose) (HPC).
[11] abbreviates: dose: 50.0 mg/kg/injection, schedule: Q01DX005 (ip), vehicle: saline.

With `CC(C)(C)OC(=O)NC(CCC(=O)O)(Cc1ccccc1)C(=O)NC(CCC(=O)O)(Cc1ccccc1)C(=O)OCc1ccccc1` (centres undefined), the T/C was 98 % of control under setting [1]; 105 % of control (dose: 12.5 mg/kg/injection, schedule: Q01DX005 (ip), vehicle: saline with Tween-80); 88 % of control (dose: 25.0 mg/kg/injection, schedule: Q01DX005 (ip), vehicle: saline with Tween-80).
Take `Nc1nnc(/C=C/c2ccc(Cl)cc2)o1`: the T/C (dose: 60.0 mg/kg/injection, schedule: Q01DX005 (ip), vehicle: saline with Tween-80) is 98 % of control; the T/C (dose: 120.0 mg/kg/injection, schedule: Q01DX005 (ip), vehicle: saline with Tween-80) was 105 % of control; the T/C (dose: 240.0 mg/kg/injection, schedule: Q01DX005 (ip), vehicle: saline with Tween-80) was 106 % of control.
With `CC(=O)N(OC1OC(CO)C(O)C(O)C1O)c1ccc(Oc2ccc(Cl)cc2)cc1` (centres undefined), the T/C is, setting by setting: under setting [2], 104 % of control; under setting [3], 92 % of control.
Turning to `O=NN(CCCl)C(=O)Oc1cc(Cl)c(Cl)cc1Cl`, the T/C (dose: 25.0 mg/kg/injection, schedule: Q01DX001 (ip), vehicle: Klucel (hydroxypropylcellulose) (HPC)) is 116 % of control; the T/C under setting [4] was 86 % of control; the T/C (dose: 75.0 mg/kg/injection, schedule: Q01DX001 (ip), vehicle: Klucel (hydroxypropylcellulose) (HPC)) was 154 % of control and 250 % of control; the T/C (dose: 100.0 mg/kg/injection, schedule: Q01DX001 (ip), vehicle: Klucel (hydroxypropylcellulose) (HPC)) is 258 % of control.
As to `CCC(=O)Nc1ccc(C(=O)C(C)Br)cc1` (centres undefined), the T/C reads like this: (dose: 6.25 mg/kg/injection, schedule: Q01DX009 (ip), vehicle: saline with Tween-80) 108 % of control; under setting [5], 115 % of control; (dose: 25.0 mg/kg/injection, schedule: Q01DX009 (ip), vehicle: saline with Tween-80) 117 % of control.
Take `Nc1ccccc1N=Cc1c(O)c2ccccc2oc1=O`: the T/C (dose: 50.0 mg/kg/injection, schedule: Q01DX005 (ip), vehicle: saline with Tween-80) is 93 % of control and the T/C under setting [6] was 98 % of control.
For the molecule `COC(=O)C1(C(=O)Nc2ccccc2)N=N1`, the T/C is 108 % of control under setting [2], 100 % of control under setting [3] and 103 % of control under setting [7].
For `CCCCCCCCCCCCCCCCS(=O)(=O)N/N=C(/c1ccc(Cl)cc1)N1CCCCC1`, the T/C was 100 % of control under setting [8], 102 % of control under setting [9] and 92 % of control under setting [10].
Consider `O=C1OCC(c2ccno2)=C1O`, for which the T/C runs as follows: under setting [2], 100 % of control; under setting [3], 100 % of control; under setting [7], 104 % of control.
Regarding `CC(=O)N(C)N=Nc1ccc(C)cc1`, the T/C reads like this: (dose: 50.0 mg/kg/injection, schedule: Q01DX009 (ip), vehicle: saline) 100 % of control and 121 % of control and 123 % of control; (dose: 100.0 mg/kg/injection, schedule: Q01DX009 (ip), vehicle: saline) 100 % of control and 118 % of control and 121 % of control.
With `CCN(CC)CCCNc1ccc(C)c2sc3ccccc3c(=O)c12`, the T/C (dose: 12.5 mg/kg/injection, schedule: Q01DX005 (ip), vehicle: saline) is 100 % of control; the T/C (dose: 25.0 mg/kg/injection, schedule: Q01DX005 (ip), vehicle: saline) was 109 % of control; the T/C under setting [11] was 99 % of control and 114 % of control.
Consider `N#CC(Cc1ccccc1)c1ccc(Cl)cc1` (centres undefined), for which the T/C was 106 % of control under setting [8]; 110 % of control under setting [9]; 104 % of control under setting [10]; 109 % of control (dose: 400.0 mg/kg/injection, schedule: Q01DX009 (ip), vehicle: Klucel (hydroxypropylcellulose) (HPC)).
As to `CCOc1c(N=Nc2ccc(O)cc2)c(C)nn1C(=S)SC`, the T/C is 107 % of control (dose: 60.0 mg/kg/injection, schedule: Q01DX005 (ip), vehicle: Klucel + Tween-80); 104 % of control (dose: 120.0 mg/kg/injection, schedule: Q01DX005 (ip), vehicle: Klucel + Tween-80); 100 % of control (dose: 240.0 mg/kg/injection, schedule: Q01DX005 (ip), vehicle: Klucel + Tween-80).
Consider `COc1ccc2c(C)cc(N/N=C(\c3ccccc3)c3ccccn3)nc2c1`, for which the T/C is, setting by setting: (dose: 1.56 mg/kg/injection, schedule: Q01DX005 (ip), vehicle: saline with Tween-80) 107 % of control; (dose: 3.12 mg/kg/injection, schedule: Q01DX005 (ip), vehicle: saline with Tween-80) 102 % of control; under setting [1], 98 % of control and 94 % of control; under setting [6], 89 % of control; (dose: 200.0 mg/kg/injection, schedule: Q01DX005 (ip), vehicle: saline with Tween-80) 94 % of control.
Consider `CS/C(Nc1ccccc1)=C1\CCCn2c1nc1ccccc1c2=O`, for which the T/C (dose: 25.0 mg/kg/injection, schedule: Q01DX001 (ip), vehicle: saline with Tween-80) is 105 % of control; the T/C (dose: 50.0 mg/kg/injection, schedule: Q01DX001 (ip), vehicle: saline with Tween-80) was 99 % of control; the T/C (dose: 100.0 mg/kg/injection, schedule: Q01DX001 (ip), vehicle: saline with Tween-80) is 90 % of control and 91 % of control.
Consider `O=C1CN(CCN2CCOCC2)CC(=O)N2CCCCN12`, for which the T/C runs as follows: under setting [11], 99 % of control; (dose: 100.0 mg/kg/injection, schedule: Q01DX005 (ip), vehicle: saline) 102 % of control; (dose: 200.0 mg/kg/injection, schedule: Q01DX005 (ip), vehicle: saline) 107 % of control.
For `COc1ccc(N=C2C(=Nc3ccc(OC)cc3)N(S(=O)(=O)c3ccc(C)cc3)C(=S)N2c2ccccc2)cc1`, the T/C by setting is: (dose: 50.0 mg/kg/injection, schedule: Q01DX005 (ip), vehicle: Klucel + Tween-80) 100 % of control; (dose: 100.0 mg/kg/injection, schedule: Q01DX005 (ip), vehicle: Klucel + Tween-80) 98 % of control.
Regarding `C/C(=N\N/C=N/S(=O)(=O)c1ccccc1)c1ccccc1`, the T/C by setting is: under setting [4], 88 % of control; (dose: 100.0 mg/kg/injection, schedule: Q01DX005 (ip), vehicle: Klucel (hydroxypropylcellulose) (HPC)) 89 % of control; (dose: 200.0 mg/kg/injection, schedule: Q01DX005 (ip), vehicle: Klucel (hydroxypropylcellulose) (HPC)) 89 % of control.
Take `NCC1OC(n2cnc3c(N)ncnc32)C(O)C1O` (centres undefined): the T/C (dose: 6.25 mg/kg/injection, schedule: Q01DX009 (ip), vehicle: water) is 100 % of control; the T/C (dose: 12.5 mg/kg/injection, schedule: Q01DX009 (ip), vehicle: water) is 100 % of control; the T/C (dose: 25.0 mg/kg/injection, schedule: Q01DX009 (ip), vehicle: water) was 98 % of control; the T/C (dose: 50.0 mg/kg/injection, schedule: Q01DX009 (ip), vehicle: water) is 107 % of control; the T/C (dose: 100.0 mg/kg/injection, schedule: Q01DX009 (ip), vehicle: water) is 117 % of control.
For the molecule `CC(N)C1CCC2C3CC=C4CC(N)CCC4(C)C3CCC12C` (centres undefined), the T/C (dose: 10.0 mg/kg/injection, schedule: Q01DX009 (ip), vehicle: saline with Tween-80) is 112 % of control and the T/C (dose: 20.0 mg/kg/injection, schedule: Q01DX009 (ip), vehicle: saline with Tween-80) is 94 % of control.
Take `C1=CC=CCC=C1`: under setting [5], the T/C is 120 % of control.
With `CCN(CC)CCO/N=C1\CC(c2ccc(OC)c(OC)c2)Oc2ccccc21` (centres undefined), the T/C by setting is: (dose: 15.0 mg/kg/injection, schedule: Q01DX005 (ip), vehicle: saline) 100 % of control; (dose: 30.0 mg/kg/injection, schedule: Q01DX005 (ip), vehicle: saline) 114 % of control; (dose: 60.0 mg/kg/injection, schedule: Q01DX005 (ip), vehicle: saline) 100 % of control and 105 % of control.
Regarding `O=C(CO)C1CC2CCC1C2` (centres undefined), the T/C was 101 % of control under setting [2], 101 % of control under setting [3] and 99 % of control under setting [7].
`CN(C=O)c1ccc(Cl)cc1`: the T/C reads like this: (dose: 100.0 mg/kg/injection, schedule: Q04DX002 (ip), vehicle: saline) 100 % of control; (dose: 200.0 mg/kg/injection, schedule: Q04DX002 (ip), vehicle: saline) 97 % of control; (dose: 400.0 mg/kg/injection, schedule: Q04DX002 (ip), vehicle: saline) 100 % of control.
As for `O=C(N/N=C/c1cccnc1)C(=O)Nc1cccc(C(F)(F)F)c1`, the T/C runs as follows: (dose: 6.25 mg/kg/injection, schedule: Q01DX005 (ip), vehicle: Klucel (hydroxypropylcellulose) (HPC)) 95 % of control; (dose: 12.5 mg/kg/injection, schedule: Q01DX005 (ip), vehicle: Klucel (hydroxypropylcellulose) (HPC)) 89 % of control; (dose: 25.0 mg/kg/injection, schedule: Q01DX005 (ip), vehicle: Klucel (hydroxypropylcellulose) (HPC)) 87 % of control.
